# Laboratory results as given in US10189862B2, “Phenothiazine-pyridine compounds and uses thereof” (The Chinese University of Hong Kong, priority 2016, dated 2019).
# Read-outs that look alike come from different tables or passages of the source.
# What was measured:
# [1] = UV-Visible and fluorescence spectrometry; type: physicochemical; details: for λmax(nm)in EtOH: UV-Vis absorption maximum in EtOH; for Log ε: UV-Vis in EtOH; for λEm (nm): fluorescence emission, excited at 610 nm
# Experimental: (§1) All of the new prepared phenothiazine-pyridine compounds are deep blue solid, the basic physiochemical properties are measured by UV-Visible and fluorescence spectrometry. […] The maximum absorption is about 650 nm in ethanol, and they are varied based on the compound structure. The fluorescence emission is about 680 nm when excited at 610 nm. All of these compounds have relatively high quantum yield, they are promising diagnostic and imaging agents. The lipophilicity is determined by the partition coefficient (log P), which can be obtained by measuring the UV-Vis absorption of the compound in phosphate buffer saline (PBS) before and after the partition equilibrium between n-octanol and PBS solution, and then calculated following the equation of: Log p=Log [(Abefore/Aafter)−1]. Wherein Abefore and Aafter are the absorption values in PBS solution before and after partition.
# [2] = Partition coefficient (log P) between n-octanol and PBS by UV-Vis absorption; type: physicochemical
# Experimental: as §1
# [3] = test system: normal fibroblast WI38 cells; experiment: Dark toxicity, MTT assay; type: cell-based; details: Homo sapiens, read-out: IC50 dark toxicity
# Experimental: (§2) Cell lines and culture conditions: A549, HT29, MCF-7, MDA-MB-231 cell lines were maintained in RPMI1640 supplemented with fetal bovine serum (10%) and penicillin-streptomycin solution (1%), and WI38 cells were maintained in DMEM supplemented with fetal bovine serum (10%) and penicillin-streptomycin solution (1%). Approximately 1×10^4 (for A549, HT29, MCF-7, MDA-MB-231) or 1.5×10^4 (for WI38) cells per well were seeded in 96-well plate and incubated overnight light at 37° C. in a humidified atmosphere with 5% CO2.
# (§3) Dark toxicity: Cells were incubated with different concentrations of photosensitive drug for 24 h in dark, and the cell viabilities were determined by MTT assay
# The IC50 values (50% inhibitory concentration) of the prepared phenothiazine-pyridine compounds 8, 14, 15, 16, 17, 18, 19, 20, 21, 22, 23, and 24 to normal fibroblast cell line WI38 were measured by MTT assay.
# A549 cell line [4] = experiment: Photocytotoxicity (PDT), MTT assay; type: cell-based; details: Homo sapiens, read-out: IC50 PDT
# Experimental: as §2
# (§4) Photocytotoxicity: Cells were incubated with different concentrations of photosensitive drug for 1 h in the dark, then the medium in the well was sucked by a syringe, and washed by PBS. Then a solution of new medium was added, and illuminated by light. After irradiation, the cells were incubated under dark at 37° C. for another 24 h, and the cell viabilities were determined by MTT assay.
# HT29 cell line [5] = experiment: Photocytotoxicity (PDT), MTT assay; type: cell-based; details: Homo sapiens, HT-29, light or radiation study, read-out: IC50 PDT
# Experimental: as §2, §4
# MCF7 cell line [6] = experiment: Photocytotoxicity (PDT), MTT assay; type: cell-based; details: Homo sapiens, read-out: IC50 PDT
# Experimental: as §2, §4
# A549 cell line [7] = experiment: Dark toxicity, MTT assay; type: cell-based; details: Homo sapiens, read-out: IC50 DK
# Experimental: as §2, §3
# HT29 cell line [8] = experiment: Dark toxicity, MTT assay; type: cell-based; details: Homo sapiens, read-out: IC50 DK
# Experimental: as §2, §3
# MCF7 cell line [9] = experiment: Dark toxicity, MTT assay; type: cell-based; details: Homo sapiens, read-out: IC50 DK
# Experimental: as §2, §3
# S. aureus [10] = experiment: Dark toxicity of photosensitizers on bacteria, CFU count; type: cell-based, Staphylococcus aureus; details: absence of light, 6 h
# Experimental: (§5) Bacterial growth and culture: Gram-positive S. aureus or Gram-negative E. coli were grown on trypticase soy agar (TSA) for 24 h, then a colony was transferred into tryptica soy broth (TSB) and grown at 37° C. overnight at a 200 rpm speeds of shaking-up using a shaker incubator. The nutrient medium was centrifuged for 5 min at 8000 rpm and diluted by sterile 0.85% saline (pH 7.5) to concentrations of 10^8 CFU/ml, which was used for further incubation with photosensitizers in the following experiments.
# (§6) Dark toxicities of the photosensitizers on bacteria: Bacterial suspensions were incubated with photosensitizers at various concentrations at 37° C. in the dark for 6 h. After that, 100 uL of cell suspension were spread on the TSA in 10-fold serial dilutions. Colony forming unit (CFU) was counted after incubation for 24 h at 37° C.
# E. coli [11] = experiment: as above; type: cell-based, Escherichia coli; details: absence of light, 6 h
# Experimental: as §5, §6
# MDA-MB-231 cells = experiment: Light dosage dependent photocytotoxicity, 635 Laser; type: cell-based; details: MDA-MB-231, 635 Laser
# Experimental: as §2, §4
# […] After incubation for a further 24 h, 3-(4,5-Dimethylthiazol-2-yl)-2,5-diphenyltetrazolium bromide (MTT) were added and the cells were incubated for another 4 h. The medium were sucked by syringe, and dimethyl sulfoxide (DMSO) was added to fully dissolve the crystals, the optical density (OD) values were measured with a microplate reader, and the data were analyzed by GraphPad Prism 6.
# S. aureus [12] = experiment: Photodynamic inactivation of bacteria, CFU count; type: cell-based, Staphylococcus aureus
# Experimental: as §5
# (§7) Photodynamic inactivation of bacteria: Bacterial suspensions (2×10^8 CFU/ml) were co-incubated with different concentrations of the photosensitizer for 10 min at 37° C., and then centrifuged, washed once with normal saline and resuspended in PBS saline. Aliquots of this suspension were placed into 24-well flat bottom plate and illuminated with laser light. After illumination, 100 uL of cell suspension were spread on the TSA in 10-fold serial dilutions and colony forming unit (CFU) was counted after incubation for 24 h at 37° C.
# E. coli [13] = experiment: Photodynamic inactivation of bacteria, CFU count; type: cell-based, Escherichia coli
# Experimental: as §5, §7
smiles,measurement,setting,value
"CCN(CC)c1ccc2nc3c(cc(N)c4nc(C)ccc43)[s+]c2c1 [Compound 8, 5-amino-9-(diethylamino)-3-methylpyrido[3,2-a]phenothiazin-7-ium chloride]",λmax(nm)in EtOH,[1],658 nm
same,Log ε,[1],4.93
same,λEm (nm),[1],680 nm
same,logP,[2],0.97
same,IC50,"[3]; WI-38, 24 h",> 10 µM
same,IC50,"A549 cell line [4]; A549, light or radiation study",1.8 µM
same,IC50,HT29 cell line [5],0.21 µM
same,IC50,"MCF7 cell line [6]; MCF7, light or radiation study",0.5 µM
same,IC50,"A549 cell line [7]; A549, 24 h",6.5 µM
same,IC50,"HT29 cell line [8]; HT-29, 24 h",4.6 µM
same,IC50,"MCF7 cell line [9]; MCF7, 24 h",1.1 µM
same,dark toxicity,S. aureus [10],essentially non-toxic
same,dark toxicity,E. coli [11],essentially non-toxic
"CCCNc1cc2[s+]c3cc(N(CC)CC)ccc3nc2c2ccc(C)nc12.[Cl-] [Compound 14, 9-(diethylamino)-3-methyl-5-(propylamino)pyrido[3,2-a]phenothiazin-7-ium chloride]",λmax(nm)in EtOH,[1],666 nm
same,Log ε,[1],5.01
same,λEm (nm),[1],684 nm
same,logP,[2],1.34
same,IC50,"[3]; WI-38, WI38 cells, 24 h under dark, MTT",> 10 µM
same,IC50,"A549 cell line [4]; light or radiation study, A549, 1 h incubation, 630 nm LED light 30 s, 3.2 J/cm^2, 24 h, MTT",0.34 µM
same,IC50,"HT29 cell line [5]; HT29, 1 h incubation, 630 nm LED light 30 s, 3.2 J/cm^2, 24 h, MTT",0.039 µM
same,IC50,"MCF7 cell line [6]; light or radiation study, MCF7, 1 h incubation, 630 nm LED light 30 s, 3.2 J/cm^2, 24 h, MTT",0.37 µM
same,IC50,"A549 cell line [7]; A549, 24 h under dark, MTT",3.1 µM
same,IC50,"HT29 cell line [8]; HT-29, HT29, 24 h under dark, MTT",2.1 µM
same,IC50,"MCF7 cell line [9]; MCF7, 24 h under dark, MTT",1.9 µM
same,photocytotoxicity vs light dosage,MDA-MB-231 cells,light dosage dependent photocytotoxicity
same,dark toxicity,S. aureus [10],essentially non-toxic
same,dark toxicity,E. coli [11],essentially non-toxic
same,photocytotoxicity vs light dosage,S. aureus [12]; 0.5 uM drug,light dosage dependent
same,eradication,"S. aureus [12]; 0.5 uM, 30 J/cm^2",about 99.9999%
same,log 10-reduction,"S. aureus [12]; 0.5 uM, 30 J/cm^2",~6 log 10-reduction
same,photocytotoxicity vs light dosage,E. coli [13]; 6 uM drug,light dosage dependent
same,eradication,"E. coli [13]; 6 uM, 50 J/cm^2",about 99.999%
same,log 10-reduction,"E. coli [13]; 6 uM, 50 J/cm^2",~5 log 10-reduction
"CCCCCNc1cc2[s+]c3cc(N(CC)CC)ccc3nc2c2ccc(C)nc12 [Compound 15, 9-(diethylamino)-3-methyl-5-(pentylamino)pyrido[3,2-a]phenothiazin-7-ium chloride]",λmax(nm)in EtOH,[1],651 nm
same,Log ε,[1],4.91
same,λEm (nm),[1],684 nm
same,logP,[2],1.4
same,IC50,"[3]; WI-38, 24 h",> 10 µM
"CCCCCCCNc1cc2[s+]c3cc(N(CC)CC)ccc3nc2c2ccc(C)nc12 [Compound 16, 9-(diethylamino)-5-(heptylamino)-3-methylpyrido[3,2-a]phenothiazin-7-ium chloride]",λmax(nm)in EtOH,[1],651 nm
same,Log ε,[1],4.89
same,λEm (nm),[1],684 nm
same,logP,[2],1.44
same,IC50,"[3]; WI-38, 24 h",> 10 µM
"CCCCCCCCCCNc1cc2[s+]c3cc(N(CC)CC)ccc3nc2c2ccc(C)nc12 [Compound 17, 5-(decylamino)-9-(diethylamino)-3-methylpyrido[3,2-a]phenothiazin-7-ium chloride]",λmax(nm)in EtOH,[1],651 nm
same,Log ε,[1],4.89
same,λEm (nm),[1],684 nm
same,logP,[2],2.49
same,IC50,"[3]; WI-38, 24 h",7 µM
"CCN(CC)c1ccc2nc3c(cc(NC)c4nc(C)ccc43)[s+]c2c1 [Compound 18, 9-(diethylamino)-3-methyl-5-(methylamino)pyrido[3,2-a]phenothiazin-7-ium chloride]",λmax(nm)in EtOH,[1],649 nm
same,Log ε,[1],4.70
same,λEm (nm),[1],683 nm
same,logP,[2],1.31
same,IC50,"[3]; WI-38, 24 h",5 µM
"CCCN(CCC)c1cc2[s+]c3cc(N(CC)CC)ccc3nc2c2ccc(C)nc12 [Compound 19, 9-(diethylamino)-5-(dipropylamino)-3-methylpyrido[3,2-a]phenothiazin-7-ium chloride]",λmax(nm)in EtOH,[1],675 nm
same,Log ε,[1],4.67
same,λEm (nm),[1],684 nm
same,logP,[2],1.42
same,IC50,"[3]; WI-38, 24 h",9.4 µM
"CCCCCN(CCCCC)c1cc2[s+]c3cc(N(CC)CC)ccc3nc2c2ccc(C)nc12 [Compound 20, 9-(diethylamino)-5-(dipentylamino)-3-methylpyrido[3,2-a]phenothiazin-7-ium chloride]",λmax(nm)in EtOH,[1],676 nm
same,Log ε,[1],4.89
same,λEm (nm),[1],700 nm
same,logP,[2],1.48
same,IC50,"[3]; WI-38, 24 h",> 10 µM
"CCN(CC)c1ccc2nc3c(cc(NCCCN)c4nc(C)ccc43)[s+]c2c1 [Compound 21, 5-(3-aminopropylamino)-9-(diethylamino)-3-methylpyrido[3,2-a]phenothiazin-7-ium chloride]",λmax(nm)in EtOH,[1],668 nm
same,Log ε,[1],4.82
same,λEm (nm),[1],686 nm
same,logP,[2],0.64
same,IC50,"[3]; WI-38, 24 h",> 10 µM
"CCN(CC)c1ccc2nc3c(cc(NCCCNC)c4nc(C)ccc43)[s+]c2c1 [Compound 22, 9-(diethylamino)-3-methyl-5-(3-(methylamino)propylamino) pyrido[3,2-a]phenothiazin-7-ium chloride]",λmax(nm)in EtOH,[1],658 nm
same,Log ε,[1],4.81
same,λEm (nm),[1],686 nm
same,logP,[2],0.65
same,IC50,"[3]; WI-38, 24 h",> 10 µM
same,IC50,"A549 cell line [4]; A549, light or radiation study",11.9 µM
same,IC50,HT29 cell line [5],0.51 µM
same,IC50,"MCF7 cell line [6]; MCF7, light or radiation study",3.1 µM
same,IC50,"A549 cell line [7]; A549, 24 h",19.8 µM
same,IC50,"HT29 cell line [8]; HT-29, 24 h",9.5 µM
same,IC50,"MCF7 cell line [9]; MCF7, 24 h",13.2 µM
"CCCNc1c(I)c2[s+]c3cc(N(CC)CC)ccc3nc2c2ccc(C)nc12 [Compound 23, 9-(diethylamino)-6-iodo-3-methyl-5-(propylamino)pyrido[3,2-a]phenothiazin-7-ium chloride]",λmax(nm)in EtOH,[1],633 nm
same,Log ε,[1],4.87
same,λEm (nm),[1],666 nm
same,logP,[2],1.48
same,IC50,"[3]; WI-38, 24 h",5.2 µM
same,IC50,"A549 cell line [4]; A549, light or radiation study",0.68 µM
same,IC50,HT29 cell line [5],0.071 µM
same,IC50,"MCF7 cell line [6]; MCF7, light or radiation study",0.12 µM
same,IC50,"A549 cell line [7]; A549, 24 h",3.3 µM
same,IC50,"HT29 cell line [8]; HT-29, 24 h",2 µM
same,IC50,"MCF7 cell line [9]; MCF7, 24 h",0.9 µM
same,dark toxicity,S. aureus [10],essentially non-toxic
same,dark toxicity,E. coli [11],essentially non-toxic
"CCCCN(CCCC)c1ccc2nc3c(cc(NCCC)c4nc(C)ccc43)[s+]c2c1 [Compound 24, 9-(dibutylamino)-3-methyl-5-(propylamino)pyrido[3,2-a]phenothiazin-7-ium chloride]",λmax(nm)in EtOH,[1],654 nm
same,Log ε,[1],4.86
same,λEm (nm),[1],688 nm
same,logP,[2],3.4
same,IC50,"[3]; WI-38, 24 h",> 10 µM
same,IC50,"A549 cell line [4]; A549, light or radiation study",0.1 µM
same,IC50,HT29 cell line [5],0.074 µM
same,IC50,"MCF7 cell line [6]; MCF7, light or radiation study",0.077 µM
same,IC50,"A549 cell line [7]; A549, 24 h",0.85 µM
same,IC50,"HT29 cell line [8]; HT-29, 24 h",0.84 µM
same,IC50,"MCF7 cell line [9]; MCF7, 24 h",0.85 µM
same,dark toxicity,S. aureus [10],essentially non-toxic
same,dark toxicity,E. coli [11],essentially non-toxic
